From patent US10336710B2, “Benzimidazole derivatives, preparation method therefor, and applications thereof” (BEIJING PHARMACEUTICAL GROUP CO., LTD., priority 2015, dated 2019)

Experiments:
[1] = target: human URAT1 (Homo sapiens (Human), UniProt Q96S37); test: 14C-uric acid uptake inhibition in URAT1 high-expression 293/hURAT1 cells; assay type: cell-based; details: 50 μM 14C-uric acid, 5 minutes at 37° C., read-out: URAT1 IC50 activity classification
Protocol: The transfected cells were assayed for ability to uptake uric acid labelled with radioisotope. The test compounds were then evaluated for their activity by determining of their ability to block uric acid uptake by the transfected cells.
293/h URAT1 cells were plated at a density of 40000 cells/well in poly D-lysine-coated 96-well plates (BD, 356461) and incubated overnight. The medium was removed and a pre-warmed reaction buffer was added (125 mM sodium gluconate, 4.8 mM potassium gluconate, 1.3 mM calcium gluconate, 1.2 mM potassium dihydrogen phosphate, 1.2 mM magnesium sulfate, 5.6 mM glucose, 25 mM HEPES, pH 7.4) before incubating at 37° C. for 10 minutes. The buffer was removed and another reaction buffer containing 50 μM ^14C-uric acid (American Radiolabeled Chemicals, ARC0513) and the test compounds or solvent control was added before incubating at 37° C. for 5 minutes. The buffer was removed, and the plates were washed 3 times with the buffer. Cells were lysed by adding 100 mM NaOH for 20 minutes. Cell lysates were transferred to Isoplate-96 well plates (PerkinElmer, 6005040), mixed with liquid scintillators and were counted in a MicroBeta^2 (PerkinElmer) counter.
The test compounds were all dissolved in DMSO, and DMSO of the same concentration without the test compounds was used as a solvent control. […] The IC50 of each compound was calculated using the percentage of inhibition at different concentrations.

[2] = test system: hyperuricemia rat models; test: Therapeutic effect on potassium oxonate-induced hyperuricemia rat models (blood uric acid); assay type: in vivo, SD rats; details: for Blood uric acid concentration before drug administration: baseline, rat serum; for Blood uric acid concentration before drug administration / Blood uric acid concentration 7 days after drug administration: mean ± SD; for Blood uric acid concentration 7 days after drug administration: potassium oxonate 250 mg/kg/d i.p.; for Blood uric acid increase: 7 days vs before drug administration; for Effect on increment of blood uric acid levels compared with model control group (in words): 80 mg/kg/day and 40 mg/kg/day, potassium oxonate rat model
Protocol: Experimental animals: SD rats (SPF level), Laboratory Animal Center, Chinese Academy of Military Medical Sciences.
Rats weighing 200±20 g were fasted for 12 hours after a 1-week adaptive feeding period and were intraperitoneally injected with potassium oxonate (250 mg/kg/d) once daily for 7 consecutive days for modeling. The rats were closely observed after injection. […]
Blood samples were collected from the retro-orbital venous plexus before the preparation of the rat models and after administering the test compounds for 7 days. Serum was separated from the blood samples. Urine was collected using a metabolic cage for 24 hours and the supernatant was collected after centrifuge. Blood uric acid levels were measured using an automatic biochemical analyzer. The average increment in blood uric acid concentration was calculated for each group of animals.
SPSS 13.0 statistical software package was used to analyze the data. The data in each group were expressed as mean plus or minus standard deviation (x±s). The data were compared using a comparative t-test between groups, where p<0.05 was considered as statistically significant.

[3] = 40 mg/kg/d intragastric once daily for 7 days
[4] = 80 mg/kg/d intragastric once daily for 7 days

human URAT1, sequence (Q96S37 whole entry): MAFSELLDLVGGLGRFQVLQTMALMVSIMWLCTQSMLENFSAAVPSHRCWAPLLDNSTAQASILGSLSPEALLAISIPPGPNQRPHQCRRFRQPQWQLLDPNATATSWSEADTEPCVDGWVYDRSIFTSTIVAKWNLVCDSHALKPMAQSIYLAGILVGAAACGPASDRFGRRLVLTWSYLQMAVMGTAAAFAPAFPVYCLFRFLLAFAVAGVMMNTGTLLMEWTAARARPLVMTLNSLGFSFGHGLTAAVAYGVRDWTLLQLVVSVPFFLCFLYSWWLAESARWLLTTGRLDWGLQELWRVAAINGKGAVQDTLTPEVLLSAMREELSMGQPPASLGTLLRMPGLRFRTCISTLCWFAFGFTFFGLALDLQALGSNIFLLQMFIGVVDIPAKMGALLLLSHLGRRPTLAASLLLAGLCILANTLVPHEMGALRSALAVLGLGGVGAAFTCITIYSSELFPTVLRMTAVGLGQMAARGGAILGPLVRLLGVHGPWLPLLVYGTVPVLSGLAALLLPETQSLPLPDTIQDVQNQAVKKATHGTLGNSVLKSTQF

Row | SMILES | IC50 [1] [µM] | Blood uric acid concentration before drug administration ([2]; 40 mg/kg/d group) [µmol/L] | Blood uric acid concentration 7 days after drug administration [2, 3] [µmol/L] | Blood uric acid increase ([2]; 40 mg/kg/d) [%] | Blood uric acid concentration before drug administration ([2]; 80 mg/kg/d group) [µmol/L] | Blood uric acid concentration 7 days after drug administration [2, 4] [µmol/L] | Blood uric acid increase ([2]; 80 mg/kg/d) [%] | Effect on increment of blood uric acid levels compared with model control group (in words) [2]
1 | O=C(O)CSc1nnc(Br)n1-c1ccc(C2CC2)c2ccccc12 [Lesinurad, reference compound] | – | 156.02 ± 8.69 | 172.57 ± 25.43 | 10.61 | 161.20 ± 22.07 | 166.85 ± 12.76 | 3.50 | could reduce the increment of blood uric acid levels
2 | CC(C)(Sc1nc2ccccc2n1-c1ccc(C2CC2)c2ccccc12)C(=O)O [Example I5, 2-methyl-2-[[1-(4-cyclopropylnaphth-1-yl)-1H-benzo[d]imidazol-2-yl]thio]propanoic acid] | 15 to 30 | – | – | – | – | – | – | –
3 | CC(C)(Sc1nc2ccccc2n1-c1ccc(Cl)cc1F)C(=O)O [Example I12, 2-methyl-2-[[1-(4-chloro-2-fluorophenyl)-1H-benzo[d]imidazol-2-yl]thio]propanoic acid] | 15 to 30 | – | – | – | – | – | – | –
4 | CC(C)(Sc1nc2ccccc2n1-c1ccc([N+](=O)[O-])cc1F)C(=O)O [Example I7, 2-methyl-2-[[1-(4-nitro-2-fluorophenyl)-1H-benzo[d]imidazol-2-yl]thio]propanoic acid] | 30 to 100 | – | – | – | – | – | – | –
5 | CC(C)(Sc1nc2ccccc2n1-c1ccccc1)C(=O)O [Example I8, 2-methyl-2-[(1-phenyl-1H-benzo[d]imidazol-2-yl)thio]propanoic acid] | 30 to 100 | – | – | – | – | – | – | –
6 | CC(C)(Sc1nc2ccccc2n1-c1ccc(Br)cc1F)C(=O)O [Example I11, 2-methyl-2-[[1-(4-bromo-2-fluorophenyl)-1H-benzo[d]imidazol-2-yl]thio]propanoic acid] | 15 to 30 | – | – | – | – | – | – | –

Further lines, with some results ahead:

Row | IC50 [1] [µM] | SMILES | Blood uric acid concentration before drug administration ([2]; 40 mg/kg/d group) [µmol/L] | Blood uric acid concentration 7 days after drug administration [2, 3] [µmol/L] | Blood uric acid increase ([2]; 40 mg/kg/d) [%] | Blood uric acid concentration before drug administration ([2]; 80 mg/kg/d group) [µmol/L] | Blood uric acid concentration 7 days after drug administration [2, 4] [µmol/L] | Blood uric acid increase ([2]; 80 mg/kg/d) [%] | Effect on increment of blood uric acid levels compared with model control group (in words) [2]
7 | 1 to 15 | CC(C)(Sc1nc2ccccc2n1-c1ccc(C#N)c2ccccc12)C(=O)O [Example I2, 2-methyl-2-[[1-(4-cyanonaphth-1-yl)-1H-benzo[d]imidazol-2-yl]thio]propanoic acid] | 156.38 ± 12.62 | 172.86 ± 9.37 | 10.54 | 150.86 ± 20.46 | 161.81 ± 8.38 | 7.26 | could significantly reduce the increment of blood uric acid levels
8 | 15 to 30 | O=C(O)C(Sc1nc2ccccc2n1-c1ccc(C2CC2)c2ccccc12)c1ccc(Cl)cc1 (stereo not drawn) [Example I6, 2-(4-chlorophenyl)-2-[[1-(4-cyclopropylnaphth-1-yl)-1H-benzo[d]imidazol-2-yl]thio]acetic acid] | – | – | – | – | – | – | –
9 | 15 to 30 | CC(C)(Sc1nc2ccccc2n1-c1ccccc1F)C(=O)O [Example I13, 2-methyl-2-[[1-(2-fluorophenyl)-1H-benzo[d]imidazol-2-yl]thio]propanoic acid] | – | – | – | – | – | – | –
10 | 1 to 15 | CC(C)(Sc1nc2ccccc2n1-c1ccc(C#N)cc1)C(=O)O [Example I4, 2-methyl-2-[[1-(4-cyanophenyl)-1H-benzo[d]imidazol-2-yl]thio]propanoic acid] | 142.57 ± 6.43 | 173.05 ± 17.24 | 21.38 | 158.38 ± 13.67 | 177.24 ± 5.77 | 11.90 | –
11 | 1 to 15 | CC(C)(Sc1nc2cc(Br)ccc2n1-c1ccc(C#N)c2ccccc12)C(=O)O [Example I3, 2-methyl-2-[[5-bromo-1-(4-cyanonaphth-1-yl)-1H-benzo[d]imidazol-2-yl]thio]propanoic acid] | 169.21 ± 14.24 | 180.38 ± 14.36 | 6.60 | 181.25 ± 24.86 | 159.40 ± 13.99 | −12.06 | could significantly reduce the increment of blood uric acid levels
12 | 1 to 15 | COc1ccc2c(c1)nc(SC(C)(C)C(=O)O)n2-c1ccc(C#N)c2ccccc12 [Example I1, 2-methyl-2-[[5-methoxy-1-(4-cyanonaphth-1-yl)-1H-benzo[d]imidazol-2-yl]thio]propanoic acid] | 169.61 ± 19.57 | 175.79 ± 16.54 | 3.64 | 175.83 ± 16.39 | 175.95 ± 15.43 | 0.07 | could significantly reduce the increment of blood uric acid levels
